From US4678775A, “Method of controlling pests” (priority 1984, dated 1987)
Like-named read-outs stand apart in the source and are kept apart here.

Key:
[1] = system: octopamine-sensitive adenylate cyclase; test: Activation of octopamine-sensitive adenylate cyclase, firefly light organ broken cell preparation; format: biochemical, Photinus pyralis
[2] = system: tobacco hornworms (Manducca sexta); test: In vivo leaf test (antifeeding) on tomato leaves with tobacco hornworm larvae; details: for rank order antifeeding effectiveness: based on the EC50 of the octopamine agonist, alone or +IBMX; for effect of addition of IBMX on antifeeding / pesticidal activity: with PDE inhibitor IBMX
[3] = system: adenylate cyclase in nerve cord of tobacco hornworm; test: Adenylate cyclase activation in broken cell preparations of tobacco hornworm nerve cord; format: biochemical, tobacco hornworm (Manducca sexta); details: FIG. 1
Method: Otherwise, the procedure is identical to that described above.
The tissue is homogenized (usually 15 mg/ml) as above in 6 mM Tris maleate, pH 7.4. […] This is done to cancel out the effects of dopamine and serotonin receptors which are usually present in nerve cord.
As detailed previously, the adenylate cyclase assay, either in the firefly or in other insect pest, is also used to identify a direct stimulator of adenylate cyclase.

[4] = system: cyclic AMP in intact nerve cords of tobacco hornworms; test: Cyclic AMP content of intact tobacco hornworm nerve cords; format: cell-based; details: 5 minutes
Method: After 5 minutes, the intact nerve cord was quickly treated to release all cyclic AMP which was present within the tissue.

[5] = Table 1, ratio greater than 1 = better than (±)-p-octopamine
[6] = Table 4, agonist 10^-1 gm/100 ml, No PDE Inhibitor
[7] = Table 4, agonist 10^-2 gm/100 ml, No PDE Inhibitor
[8] = Table 1, maximal activation as % of that by (±)-p-octopamine, N.A. = No Activity
[9] = Table 2, clonidines, N.A. = no activity
[10] = Table 5, agonist 10^-2 gm/100 ml, IBMX 0.1 g/100 ml
[11] = Table 5, agonist 1 gm/100 ml, IBMX 0.1 g/100 ml
[12] = Table 5, agonist 1 gm/100 ml, No PDE Inhibitor
[13] = Table 5, agonist 10^-1 gm/100 ml, IBMX 0.1 g/100 ml
[14] = Table 5, agonist 10^-1 gm/100 ml, No PDE Inhibitor
[15] = Table 5, agonist 10^-2 gm/100 ml, No PDE Inhibitor

For CN(C)CC(O)c1ccc(O)cc1 (racemic) [(±)-N,Ndimethyloctopamine, reference compound], the “Ka^oct/Ka^(1) ratio (column head is drawing 15)” value (from here on “Ka^oct/Ka^(1) ratio”) [1, 5] was 0.9.

In the case of CNCC(O)c1ccc(O)cc1 (racemic) [(±)-Nmethyloctopamine], the “% Leaf Remaining” value ([2]; Table 4, agonist 1 gm/100 ml, IBMX 0.1 g/100 ml) is reported as 90%, the “% Leaf Remaining” value ([2]; Table 4, agonist 1 gm/100 ml, No PDE Inhibitor) is reported as 30% and the “% Leaf Remaining” value ([2]; Table 4, agonist 10^-1 gm/100 ml, IBMX 0.1 g/100 ml) is reported as 55%. For the same molecule, the “% Leaf Remaining” value [2, 6] was < 5%, the “% Leaf Remaining” value ([2]; Table 4, agonist 10^-2 gm/100 ml, IBMX 0.1 g/100 ml) was 42% and the “% Leaf Remaining” value [2, 7] was < 5%. The “Ka^oct/Ka^(1) ratio” value [1] was 1.8.

With NCC(O)c1cccc(O)c1 (racemic) [(±)-m-octopamine, reference compound] the pesticidal activity ([2]; no IBMX) was “much less pesticidal activity than p-octopamine”, the “Vmax (% OCT)” value [1, 8] was 9 ± 1 % OCT and the “Ka^oct/Ka^(1) ratio” value [1, 5] was 0.1.

With CC(N)C(O)c1ccccc1 (racemic) [(±)-norephedrine, reference compound] the “Ka^oct/Ka^(1) ratio” value [1] was < 0.09 and the “Vmax (% OCT)” value [1, 8] was 8 ± 1 % OCT.

With COc1cc(C(O)CN)ccc1O (racemic) [(±)-normetanephrine, reference compound] the “Ka^oct/Ka^(1) ratio” value [1, 5] was 0.07.

For NCC(O)c1ccccc1O (racemic) [(±)-o-octopamine, reference compound], the “Ka^oct/Ka^(1) ratio” value [1, 5] was 0.05.

In the case of CC(N)Cc1ccc(O)cc1 (racemic) [(±)-p-hydroxyamphetamine, reference compound], the “Ka^oct/Ka^(1) ratio” value [1] is reported as < 0.05 and the “Vmax (% OCT)” value [1, 8] is reported as 8 ± 3 % OCT.

CC(N)C(O)c1ccc(O)cc1 (racemic) [(±)-α-methyloctopamine, reference compound] was tested, and the “Vmax (% OCT)” value [1, 8] was 44 ± 2 % OCT and the “Ka^oct/Ka^(1) ratio” value [1, 5] was 0.05.

In the case of CNC(C)C(O)c1ccc(O)cc1 (racemic) [(±)-α-methylsynephrine, reference compound], the “Vmax (% OCT)” value [1, 8] is reported as 7 ± 2 % OCT and the “Ka^oct/Ka^(1) ratio” value [1, 5] is reported as < 0.01.

For NC[C@@H](O)c1ccc(O)cc1 [(+)-p-octopamine, reference compound], the “Vmax (% OCT)” value [1, 8] was 81 ± 1 % OCT.

With CNC[C@H](O)c1ccc(O)c(O)c1 [(-)-epinephrine, reference compound] the “Ka^oct/Ka^(1) ratio” value [1] was 0.20.

For NC[C@H](O)c1ccc(O)c(O)c1 [(-)-nonrepinephrine, reference compound], the “Ka^oct/Ka^(1) ratio” value [1, 5] was 0.13.

CNC[C@H](O)c1cccc(O)c1 [(-)-phenylephrine, reference compound] was tested, and the “Ka^oct/Ka^(1) ratio” value [1, 5] was < 0.2.

With Cc1cc(Cl)ccc1N=CN [DDCDM, di-demethylchlordimeform, reference compound] the “rank order antifeeding effectiveness” value [2] was “DDCDM+IBMX=NC7+IBMX>Octopamine+IBMX=DDCDM alone>NC7 alone>octopamine alone”, the “activation of adenylate cyclase in nerve cord” value [3] was “potent activators” and the “Cyclic AMP Content (Fold-increase over Control)” value ([4]; +0.1 mM IBMX) was 11.1 ± 2.7 Fold-increase over Control. The “Cyclic AMP Content (Fold-increase over Control)” value ([4]; -IBMX) was 5.4 ± 3.8 Fold-increase over Control.

Clc1ccc(Cl)c(N=C2NCCN2)c1 [NC 2] was tested, and the “Ka ratio to octopamine” value ([1]; Table 2, clonidines) was 1.1 and the “Vmax (% OCT)” value [1, 9] was 9 % OCT.

For Clc1cc(Cl)c(N=C2NCCN2)cc1Cl [NC 3], the octopamine potency ratio [1] was 3.0, the “Ka ratio to octopamine” value ([1]; Table 2, clonidines) was 2.8 and the “Vmax (% OCT)” value [1, 9] was 80 % OCT.

With Cc1cccc(C)c1N=C1NCCN1 [NC 4] the “Ka ratio to octopamine” value ([1]; Table 2, clonidines) was 0.41 and the “Vmax (% OCT)” value [1, 9] was 80 % OCT.

With Brc1cccc(Br)c1N=C1NCCN1 [NC 6] the “Ka ratio to octopamine” value ([1]; Table 2, clonidines) was 2.1 and the “Vmax (% OCT)” value [1, 9] was 35 % OCT.

With Cc1cc(Cl)ccc1N=C1NCCN1 [NC 7, 2-(2-methyl, -4-chlorophenylimino)imidazolidine] the “% Leaf Remaining” value [2, 10] was 85%, the “Ki for inhibition of feeding by the larvae” value ([2]; applied to leaves) was 0.01 mg/leaf and the “rank order antifeeding effectiveness” value [2] was “DDCDM+IBMX=NC7+IBMX>Octopamine+IBMX=DDCDM alone>NC7 alone>octopamine alone”. The “behaviour of larvae feeding on treated leaves” value ([2]; in vivo) was “tremors, hyperactivity, and leaf walk-off behavior”, the “effect of addition of IBMX on antifeeding / pesticidal activity” value [2] was “substantial increases in the potency” and the “activation of adenylate cyclase in nerve cord” value [3] was “potent activators”. For the same molecule, the octopamine potency ratio [1] was 9.8, the “Ka ratio to octopamine” value ([1]; Table 2, clonidines) was 9.8 and the “Vmax (% OCT)” value [1, 9] was 68 % OCT. The “Cyclic AMP Content (Fold-increase over Control)” value ([4]; +0.1 mM IBMX) was 13.9 ± 3.0 Fold-increase over Control and the “Cyclic AMP Content (Fold-increase over Control)” value ([4]; -IBMX) was 2.2 ± 0.2 Fold-increase over Control.

With Clc1ccc(N=C2NCCN2)c(Cl)c1 [NC 8] the octopamine potency ratio [1] was 3.7, the “Ka ratio to octopamine” value ([1]; Table 2, clonidines) was 3.7 and the “Vmax (% OCT)” value [1, 9] was 47 % OCT.

Cc1ccc(N=C2NCCN2)c(C)c1 [NC 9] was tested, and the octopamine potency ratio [1] was 5.1, the “Ka ratio to octopamine” value ([1]; Table 2, clonidines) was 5.1 and the “Vmax (% OCT)” value [1, 9] was 78 % OCT.

In the case of c1ccc(N=C2NCCN2)cc1 [NC 10], the “% Leaf Remaining” value [2, 11] is reported as 15%, the “% Leaf Remaining” value [2, 12] is reported as 5% and the “% Leaf Remaining” value [2, 13] is reported as 13%. The “% Leaf Remaining” value [2, 14] was 5%, the “% Leaf Remaining” value [2, 10] was 15% and the “% Leaf Remaining” value [2, 15] was 5%. For the same molecule, the “% Leaf Remaining” value ([2]; Table 5, agonist 10^-3 gm/100 ml, IBMX 0.1 g/100 ml) was 12%, the “% Leaf Remaining” value ([2]; Table 5, agonist 10^-3 gm/100 ml, No PDE Inhibitor) was 5% and the antifeeding activity ([2]; compound itself, in words) was “lacked antifeeding activity both in the absence or presence of the PDE inhibitor”.

In the case of Clc1cc(Cl)c(N=C2NCCN2)c(Cl)c1 [NC 11], the “Ka ratio to octopamine” value ([1]; Table 2, clonidines) is reported as 1.9 and the “Vmax (% OCT)” value [1, 9] is reported as 60 % OCT.

Brc1ccc(N=C2NCCN2)cc1 [NC 12] was tested, and the “Ka ratio to octopamine” value ([1]; Table 2, clonidines) was 3.0 and the “Vmax (% OCT)” value [1, 9] was 34 % OCT.

With Cc1cc(C)c(N=C2NCCN2)c(C)c1 [NC 13] the octopamine potency ratio [1] was 4.3, the “Ka ratio to octopamine” value ([1]; Table 2, clonidines) was 4.3 and the “Vmax (% OCT)” value [1, 9] was 112 % OCT.

Nc1cc(Cl)c(N=C2NCCN2)c(Cl)c1 [NC 14] was tested, and the “Ka ratio to octopamine” value ([1]; Table 2, clonidines) was 0.7 and the “Vmax (% OCT)” value [1, 9] was 29 % OCT.

For CN(C)c1cc(Cl)c(N=C2NCCN2)c(Cl)c1 [NC 15], the “Ka ratio to octopamine” value ([1]; Table 2, clonidines) was 1.9 and the “Vmax (% OCT)” value [1, 9] was 38 % OCT.

For CN(CCCl)c1cc(Cl)c(N=C2NCCN2)c(Cl)c1 [NC 16], the “Ka ratio to octopamine” value ([1]; Table 2, clonidines) was 4.8 and the “Vmax (% OCT)” value [1, 9] was 6 % OCT.

In the case of CNCCc1ccc(O)c(O)c1 [Nmethyldopamine, reference compound], the “Ka^oct/Ka^(1) ratio” value [1, 5] is reported as 0.19.

In the case of Clc1cccc(Cl)c1N=C1NCCN1 [clonidine, reference compound], the “% Leaf Remaining” value [2, 11] is reported as 63%, the “% Leaf Remaining” value [2, 12] is reported as 65% and the “% Leaf Remaining” value [2, 13] is reported as 55%. The “% Leaf Remaining” value [2, 14] was 20%, the “% Leaf Remaining” value [2, 10] was 55% and the “% Leaf Remaining” value [2, 15] was 5%. The “effect of addition of IBMX on antifeeding / pesticidal activity” value [2] was “substantial increases in the potency”, the “Ka ratio to octopamine” value [1] was 0.95 and the octopamine potency ratio [1] was 0.9. For the same molecule, the “Vmax (% OCT)” value ([1]; light organ homogenate) was 35 % OCT and the “Vmax, % that of octopamine” value ([1]; light organ homogenate) was 35%.

In the case of NCCc1ccc(O)c(O)c1 [dopamine, reference compound], the “Vmax (% OCT)” value [1, 8] is reported as 4 ± 1 % OCT and the “Ka^oct/Ka^(1) ratio” value [1, 5] is reported as 0.26.

With NCC(O)c1ccc(O)c(Cl)c1 (stereo not drawn) [m-chloro-octopamine] the “Ka^oct/Ka^(1) ratio” value [1, 5] was 0.28.

For Nc1ncnc2c1nc(Sc1ccc(Cl)cc1)n2[C@@H]1O[C@@H]2COP(=O)(O)O[C@H]2[C@H]1O [p-Cl-phenylthio cyclic AMP, 8-p-chlorophenylthio-cyclic AMP, reference compound], the antifeeding activity ([2]; concentration of 1%, absence of IBMX) was “showed antifeeding activity” and the “effect of addition of IBMX on antifeeding / pesticidal activity” value [2] was “increased by addition of IBMX”.

NCC(O)c1ccc(F)cc1 (stereo not drawn) [p-fluoro-phenylethanolamine] was tested, and the “% Leaf Remaining” value [2, 6] was < 5%, the “% Leaf Remaining” value [2, 7] was < 5% and the “% Leaf Remaining” value ([2]; Table 4, agonist 10^-3 gm/100 ml, IBMX 0.1 g/100 ml) was 50%. For the same molecule, the “% Leaf Remaining” value ([2]; Table 4, agonist 10^-3 gm/100 ml, No PDE Inhibitor) was < 5%.

With COc1ccc(CCN)cc1 [p-methoxyphenylethylamine, reference compound] the “Vmax (% OCT)” value [1, 8] was 6 ± 3 % OCT and the “Ka^oct/Ka^(1) ratio” value [1, 5] was 0.10.

For NCCc1ccc(O)cc1 [tyramine, reference compound], the “Ka^oct/Ka^(1) ratio” value [1, 5] was 0.15.

NCCc1ccccc1 [β-phenylethylamine, reference compound] was tested, and the “Ka^oct/Ka^(1) ratio” value [1] was 0.03.
